Key:
Experiment in all cases: cryo-EM structure of phycobilisome
Assay type in all cases: binding
[1] = molecular target: T1, phycocyanin (PC) (Gloeobacter violaceus, UniProt Q7M7C7+Q7M7F7); conditions: covalent; one bilin on alpha, two on beta
T1 construct: gene cpcA; native, (αβ)6 hexamers of rods and Rx in isolated GraFix cross-linked phycobilisome

[2] = molecular target: T2, ApcE (Gloeobacter violaceus, UniProt Q7NL81); conditions: covalent; terminal emitter, D ring stacks on Trp162; ring conformation not resolved without restraints
T2 construct: native, within isolated GraFix cross-linked phycobilisome; bilin in N-terminal alpha-like domain, in third AP trimer of basal cylinders
T2 sequence (Q7NL81 1-1155): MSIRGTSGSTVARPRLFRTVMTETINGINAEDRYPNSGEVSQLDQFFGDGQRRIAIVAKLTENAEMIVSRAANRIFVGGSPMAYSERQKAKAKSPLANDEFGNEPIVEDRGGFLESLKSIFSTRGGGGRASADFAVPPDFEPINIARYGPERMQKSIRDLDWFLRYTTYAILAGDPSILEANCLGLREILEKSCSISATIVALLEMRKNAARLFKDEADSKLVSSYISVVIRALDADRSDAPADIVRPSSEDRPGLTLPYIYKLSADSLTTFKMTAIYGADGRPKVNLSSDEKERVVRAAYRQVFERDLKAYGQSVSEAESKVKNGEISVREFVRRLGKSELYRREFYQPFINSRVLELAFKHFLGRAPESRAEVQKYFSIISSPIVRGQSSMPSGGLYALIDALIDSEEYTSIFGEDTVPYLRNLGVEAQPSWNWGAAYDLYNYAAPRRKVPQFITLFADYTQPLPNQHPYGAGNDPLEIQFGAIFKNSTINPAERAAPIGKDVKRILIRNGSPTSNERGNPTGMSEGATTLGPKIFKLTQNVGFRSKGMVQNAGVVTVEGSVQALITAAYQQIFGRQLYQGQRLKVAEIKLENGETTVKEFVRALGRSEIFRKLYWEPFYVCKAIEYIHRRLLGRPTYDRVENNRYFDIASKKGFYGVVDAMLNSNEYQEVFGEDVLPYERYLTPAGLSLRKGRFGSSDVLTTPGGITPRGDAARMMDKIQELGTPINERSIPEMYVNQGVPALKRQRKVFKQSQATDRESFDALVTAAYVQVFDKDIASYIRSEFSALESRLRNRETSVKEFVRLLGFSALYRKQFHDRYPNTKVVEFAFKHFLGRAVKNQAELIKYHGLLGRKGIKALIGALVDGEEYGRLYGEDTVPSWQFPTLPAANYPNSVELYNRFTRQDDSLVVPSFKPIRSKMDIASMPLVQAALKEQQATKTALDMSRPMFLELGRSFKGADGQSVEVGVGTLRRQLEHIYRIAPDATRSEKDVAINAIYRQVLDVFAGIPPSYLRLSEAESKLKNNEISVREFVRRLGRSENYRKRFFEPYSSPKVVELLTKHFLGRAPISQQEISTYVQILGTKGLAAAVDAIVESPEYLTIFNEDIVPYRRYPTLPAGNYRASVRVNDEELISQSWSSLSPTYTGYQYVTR

[3] = molecular target: T3, allophycocyanin (AP) (Gloeobacter violaceus, UniProt Q7NL79+Q7NL80); conditions: covalent; one bilin on each alpha and beta subunit
T3 construct: gene apcA; native, (αβ)3 trimers of the pentacylindrical core in isolated GraFix cross-linked phycobilisome
T3 sequence (Q7NL80 1-161): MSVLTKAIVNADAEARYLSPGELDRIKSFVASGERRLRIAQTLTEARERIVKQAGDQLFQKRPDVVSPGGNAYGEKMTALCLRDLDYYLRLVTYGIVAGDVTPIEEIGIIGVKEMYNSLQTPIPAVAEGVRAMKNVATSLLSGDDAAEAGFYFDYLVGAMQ
T3 sequence (Q7NL79 1-161): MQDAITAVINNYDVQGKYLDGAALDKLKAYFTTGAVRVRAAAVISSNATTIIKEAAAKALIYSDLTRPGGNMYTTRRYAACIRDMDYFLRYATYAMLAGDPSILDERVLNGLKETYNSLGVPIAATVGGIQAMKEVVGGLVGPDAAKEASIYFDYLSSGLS

T1 sequence (Q7M7F7 1-162): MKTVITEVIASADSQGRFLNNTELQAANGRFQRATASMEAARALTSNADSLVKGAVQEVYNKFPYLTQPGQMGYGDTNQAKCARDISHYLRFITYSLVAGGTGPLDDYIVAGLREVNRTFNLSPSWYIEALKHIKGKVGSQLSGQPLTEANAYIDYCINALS
T1 sequence (Q7M7C7 1-172): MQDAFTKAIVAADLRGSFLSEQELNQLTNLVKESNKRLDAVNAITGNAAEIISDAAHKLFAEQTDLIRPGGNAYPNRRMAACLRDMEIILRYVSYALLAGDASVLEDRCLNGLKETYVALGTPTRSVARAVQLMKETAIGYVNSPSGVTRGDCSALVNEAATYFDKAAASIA

Compound: CC=C1C(=Cc2[nH]c(C=C3N=C(C=C4NC(=O)C(CC)=C4C)C(C)=C3CCC(=O)O)c(CCC(=O)O)c2C)NC(=O)C1C (stereo not drawn) [phycocyanobilin]
- cryo-EM structure of phycobilisome [1]: PCB conformations within PC hexamers in rods and AP hexamers in the core were resolved
- cryo-EM structure of phycobilisome [2]: resolved in cryo-EM density map, including the terminal emitting bilin in ApcE
- cryo-EM structure of phycobilisome [3]: PCB conformations within PC hexamers in rods and AP hexamers in the core were resolved
